Data: US11883381B2, “ASH1L inhibitors and methods of treatment therewith” (The Regents of the University of Michigan, priority 2016, dated 2024)

Legend:
[1] = molecular target: T1, ASH1L SET-BAH construct (amino acids 2069-2833) (Homo sapiens, UniProt Q9NR48); test: ASH1L histone methyltransferase assay (KMTase assay); assay type: biochemical; conditions: Table 6 section headings give the IC50 class; assay not given
T1 construct: ASH1L SET-BAH construct (amino acids 2069-2833) at 0.25 μM was incubated with 0.7 μM SAM; MOCR fusion (TEV-cleavable); made in house; host or cells: E. coli BL21(DE3) T1R
Description: ASH1L Histone Methyltransferase Assay (KMTase Assay)
The reactions were stopped by spotting 5 μL of the reaction mixture on P81 cellulose squares (Reaction Biology). The P81 squares were dried for 45 min and washed five times with 50 mM sodium bicarbonate (pH 9.0), 10 min per wash. The P81 squares were then dried for 1 h, added to 10 mL of Ultima Gold scintillation cocktail (PerkinElmer), and analyzed using a Beckman scintillation counter.

[2] = system: human acute leukemia cells with various MLL translocations; test: Cell proliferation in a panel of human acute leukemia cells; assay type: cell-based
Description: (§1) MA9 (MLL-AF9 transformed), HM2 (Hoxa9/Meis1 transformed) murine bone marrow cells (BMC), MV4;11 and MOL13 human leukemia cells were plated at 1×10^5 cells/ml in 24-well plates, treated with 0.25% DMSO or compounds and cultured at 37° C. for 12 days. Every four days, the volume corresponding to 1×10^5 cells of DMSO-treated cells was spun down and resuspended in fresh media with fresh compound. At day 0 and each four day interval, 100 μl aliquots of the cell suspension were transferred to 96-well plates in quadruplicates. The quadruplicate samples were incubated for 4 days at 37° C., and then an MTT cell proliferation assay kit (Roche) was used to measure viable cells. Absorbance was read at 570 nm using a PHERAstar (BMG) microplate reader.

[3] = system: MLL fusion target genes (Hoxa cluster, Meis1) in MLL-AF9 cells; test: Quantitative RT-PCR of MLL fusion target genes, MLL-AF9 cells; assay type: cell-based, mouse; conditions: for Expression of MLL fusion target genes (Hoxa cluster, Meis1): MLL-AF9 cells, normalized to β-actin
Description: (§2) Total RNA was extracted from cells using the RNeasy mini kit (QIAGEN), and then 100-2000 ng of total RNA was reverse transcribed using the High Capacity cDNA Reverse Transcription Kit (Applied Biosystems) according to the manufacturer's protocol. Real-time PCR was performed using a CFX96 Real-Time PCR Detection System (Biorad). TaqMan Gene Expression Master Mix and TaqMan Gene Expression Assays for mouse Gapdh (Mm99999915), mouse Ash1l (Mm00467322), mouse Hoxa7 (Mm00657963), mouse Hoxa9 (Mm00439364), mouse Hoxa10 (Mm00433966), mouse Meis1 (Mm00487664), and mouse B-actin (Mm00607939) were purchased from Thermo Fisher. Relative quantification of each gene transcript was carried out using the ΔΔCt method as described in the Biorad Real-Time PCR Applications Guide.

[4] = system: MOLM13 cells expressing MLL-AF9; test: Cell viability (MTT) assay, MOLM13 cells; assay type: cell-based, human; conditions: 4 days of treatment
Description: as §1

[5] = system: Hoxa cluster, Meis1 genes in control cell line HM-2; test: Quantitative RT-PCR of MLL fusion target genes, HM-2 control cell line; assay type: cell-based, mouse; conditions: normalized to β-actin
Description: as §2

MLL-AF9 cells = test: Differentiation (cytospin/Wright-Giemsa staining), MLL-AF9 cells; assay type: cell-based, mouse
Description: Cytospin/Wrigtht-Giemsa Staining
1×10^5 MA9 mouse BMCs treated with compounds were harvested and placed in a Shandon EZ Single Cytofunnel (Thermo Fisher). Samples were centrifuged at 600 rpm for 5 min. The slides were air dried before staining with a Hema-3 kit (Thermo Fisher).

[6] = system: HM-2 (Hoxa9/Meis1) negative control cell line; test: Differentiation, HM-2 control cell line; assay type: cell-based, murine; conditions: negative control cell line HM-2
[7] = system: murine bone marrow cells transformed with MLL-AF9 (MA9); test: Cell viability (MTT) assay, MLL-AF9 transformed murine bone marrow cells; assay type: cell-based; conditions: 8 days of treatment
Description: as §1

[8] = system: MV4;11 cells (expressing MLL-AF4); test: Cell viability (MTT) assay, MV4;11 cells; assay type: cell-based, human; conditions: 4 days of treatment
Description: as §1

ASH1L = molecular target: T2, ASH1L (Homo sapiens, UniProt Q9NR48); test: ASH1L degradation in HeLa cells; assay type: cell-based; conditions: 0.05-50 μM
T2 construct: endogenous in cells; host or cells: HeLa

Row | Compound | IC50 [1] [µM] | also measured
1 | NC(=S)c1cccc(-c2cn(C(C(F)(F)F)C(F)(F)F)c3cc(CO)ccc23)c1 [Compound 207] | < 20 | 
2 | NC(=S)c1cccc(-c2cn(CCCC(F)(F)F)c3cc(-c4ccn[nH]4)ccc23)c1 [Compound 260] |  | Cell proliferation [2]: inhibits cell proliferation; Expression of MLL fusion target genes (Hoxa9, Hoxa10 and Meis1) ([3]; MLL-AF9 transformed murine leukemia cells): downregulates expression
3 | NC(=S)c1ccc(O)c(-c2cccc3[nH]ncc23)c1 [Compound 35] | > 100 | 
4 | NC(=S)c1cccc(-c2cn(CC(CF)CF)c3cc(N)ccc23)c1 [Compound 126, 3-(6-amino-1-(3-fluoro-2-(fluoromethyl)propyl)-1H-indol-3-yl)benzothioamide] |  | Inhibition of cell proliferation [4]: Inhibition of cell proliferation; Expression of MLL fusion target genes (Hoxa cluster, Meis1) [5]: has no effect on expression; Differentiation of cells (MLL-AF9 cells): induces differentiation; Differentiation of cells [6]: but not in negative control cell line HM-2; Expression of MLL fusion target genes (Hoxa cluster, Meis1) [3]: downregulates expression; Inhibition of cell proliferation [7]: Inhibition of cell proliferation; Inhibition of cell proliferation [8]: Inhibition of cell proliferation
5 | NC(=S)c1cccc(-c2c[nH]c3ccccc23)c1 [Compound 89] | 20 to 100 | 
6 | NC(=S)c1cccc(-c2cn(CCCC(F)(F)F)c3cc(CNCc4ccccc4)ccc23)c1 [Compound 120] | < 20 | 
7 | NC(=S)c1cccc(-c2cn(-c3ccc[nH]3)c3cc(CO)ccc23)c1 [Compound 220] | < 20 | 
8 | NC(=S)c1cccc(-c2cn(CC(CO)(C(F)F)C(F)F)c3cc(CO)ccc23)c1 [Compound 200] | < 20 | 
9 | NC(=S)c1cccc(-c2cn(CC(CO)(C(F)F)C(F)F)c3cc(C(O)CF)ccc23)c1 (stereo not drawn) [Compound 209] | < 20 | 
10 | NC(=S)c1cccc(-c2cn(CC(CF)CF)c3cc(C(O)CC(F)(F)F)ccc23)c1 (stereo not drawn) [Compound 202] | < 20 | 
11 | NC(=S)c1cccc(-c2c[nH]c3ccc(O)cc23)c1 [Compound 69] |  | Expression of MLL fusion target genes (Hoxa cluster, Meis1) [5]: does not affect gene expression; Expression of MLL fusion target genes (Hoxa cluster, Meis1) [3]: does not affect gene expression
12 | NC(=S)c1cccc(-c2cccc3[nH]ccc23)c1 [Compound 34] | > 100 | 

Second part, led by results:

Row | IC50 [1] [µM] | Compound | also measured
13 | < 20 | NC(=O)NCc1ccc2c(-c3cccc(C(N)=S)c3)cn(CC(CF)CF)c2c1 [Compound 204] | 
14 | < 20 | NC(=S)c1cccc(-c2cn(CC(CF)CF)c3cc(CNC(=O)c4cnc[nH]4)ccc23)c1 [Compound 203] | 
15 | < 20 | NC(=S)c1cccc(-c2cn(CC(CF)CF)c3cc(NC(=O)c4cc[nH]c4)ccc23)c1 [Compound 137] | 
16 | < 20 | NC(=S)c1cccc(-c2cn(CC(CF)CF)c3cc(CNC(=O)CC(F)(F)F)ccc23)c1 [Compound 206] | 
17 | < 20 | CC(=O)Nc1ccc2c(-c3cccc(C(N)=S)c3)cn(CC(CF)CF)c2c1 [Compound 136] | 
18 | < 20 | NC(=S)c1cccc(-c2cn(CC(CF)CF)c3cc(NC(=O)CCOCCOCCOCCOc4cccc5c4C(=O)N(C4CCC(=O)NC4=O)C5=O)ccc23)c1 (stereo not drawn) [Compound 301] | Degradation of ASH1L (ASH1L): Degradation of ASH1L induced
